Data on 4 compounds can be found in patent publication US7556938B1, “Nucleic acids encoding potassium channel interactors” (Millennium Pharmaceuticals, Inc., priority 1998, dated 2009).

The target of test [1] is T1, Kv4.3/KChIP1 (Rattus norvegicus, UniProt Q62897).
T1 sequence (Q62897 1-655): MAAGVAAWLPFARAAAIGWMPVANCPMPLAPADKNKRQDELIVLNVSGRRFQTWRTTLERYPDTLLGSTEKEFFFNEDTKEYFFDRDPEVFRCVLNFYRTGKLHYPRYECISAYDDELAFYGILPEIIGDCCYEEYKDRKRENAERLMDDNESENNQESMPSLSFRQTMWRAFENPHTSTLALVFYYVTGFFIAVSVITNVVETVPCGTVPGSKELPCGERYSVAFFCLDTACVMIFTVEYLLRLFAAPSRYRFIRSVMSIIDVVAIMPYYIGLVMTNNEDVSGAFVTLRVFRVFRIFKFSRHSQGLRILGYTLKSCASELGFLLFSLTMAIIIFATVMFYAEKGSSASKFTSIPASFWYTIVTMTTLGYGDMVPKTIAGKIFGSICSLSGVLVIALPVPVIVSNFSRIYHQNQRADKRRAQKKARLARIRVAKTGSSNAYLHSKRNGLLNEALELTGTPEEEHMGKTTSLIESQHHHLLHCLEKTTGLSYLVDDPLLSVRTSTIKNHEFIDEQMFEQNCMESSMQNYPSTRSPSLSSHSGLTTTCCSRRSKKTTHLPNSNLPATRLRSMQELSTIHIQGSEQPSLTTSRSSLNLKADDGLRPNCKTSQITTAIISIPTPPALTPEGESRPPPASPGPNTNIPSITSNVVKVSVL
T1 sequence (Q8R426 1-216 isoform Q8R426-2 partner): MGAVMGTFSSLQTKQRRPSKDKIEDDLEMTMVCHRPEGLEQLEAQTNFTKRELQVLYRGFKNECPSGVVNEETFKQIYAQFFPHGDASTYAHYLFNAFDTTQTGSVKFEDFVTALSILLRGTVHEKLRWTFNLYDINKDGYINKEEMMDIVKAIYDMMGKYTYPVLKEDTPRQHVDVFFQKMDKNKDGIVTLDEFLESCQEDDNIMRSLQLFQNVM
The test is described as follows: Fatty acid modulation of Kv4.3/KChIP1 current in Xenopus oocytes. To be noted: for block of Kv4.3 peak amplitude: Kv4.3/KChIP1, 10 μM fatty acid, vs no-fatty acid control; for effect on Kv4.3 inactivation time constant: Kv4.3 co-expressed with KChIP1, 10 μM fatty acid. It counts as cell-based. The procedure:
(§1) Frogs underwent no more than two surgeries and surgeries were performed by well established techniques. Frogs were anesthetized with ice. Total cRNA (1-10 ng) was injected into stage IV Xenopus oocytes that were harvested the previous day. The Xenopus oocytes were incubated in ND96 containing (in mM) 96 NaCl, 2 KCl, 1.8 CaCl2, 1 MgCl2, 5 HEPES, pH 7.6, plus (Gentamycin 50 μg/ml) at 18° C. Xenopus oocytes were studied 3-7 days after injection. The two-electrode voltage-clamp recordings were performed in ND96 solution using a TURBO TEC 03 Clamp Amplifier (ALA Scientific Instruments, Westbury, N.Y.). Both electrodes were filled with 3 M KCl and had electrode resistances ranging from 0.2-1 MOhm. The current signals were filtered at 1000 Hz before transferred on a PC (Gateway, Calif.) using the PULSE software (HEKA, Germany). In this Example, the hypothesis that […] were the missing auxiliary subunits that accounted for the above kinetic discrepancy was investigated by expressing Kv4 alone or together with […] in both CHO cells and Xenopus oocytes, and measuring their inactivation time constants (using art known techniques as described in, for example, An et al. (2000) Nature 403:553-6; Keros, S. and […]. Neuroscience 17: 3476-87; and Villarroel, A. and […]. Neuroscience 16:2522-32). The effects of different concentrations of arachidonic acid on Kv4/KChIP current was studied in Xenopus oocytes. Because the physiological concentrations of arachidonic acid are often under 10 μM (Needleman, et al., 1986 Annu Rev Biochem 55:69-102; Anderson and Welsh, 1990, Proc Natl Acad Sci USA 87:7334-8; Meves, 1994, Prog Neurobiol 43:175-86), arachidonic acid was tested in the 1-10 μM range. […] Further, the slope of amplitude reduction as a function of increasing concentrations was very similar with or without the presence of […]. […] Villarroel and Schwarz, (1996) J.

Test [2] concerns Kv4.3. The test can be described thus: Fatty acid modulation of Kv4.3 current (Kv4.3 alone) in Xenopus oocytes. The class given is cell-based, rat. To be noted: Kv4.3 alone, 10 μM fatty acid, vs no-fatty acid control. Here is the method: as §1

On to `CCCCCCCCC#CCC#CCC#CCCCC(=O)O` [ETI, 5,8,11-eicosatriynoic acid], for which, in test [1], the “block of Kv4.3 peak amplitude” value is reported as “inhibited significantly” and the “effect on Kv4.3 inactivation time constant” value (“effect” below) was “reduced Kv4.3 inactivation time constant”. Moreover, in test [2], the “block of Kv4.3 peak amplitude” value is recorded as “inhibited significantly”.

On to `CCCCCC#CCC#CCC#CCC#CCCCC(=O)O` [ETYA, 5,8,11,14-eicosatetraynoic acid], for which, in test [1], the “block of Kv4.3 peak amplitude” value is “inhibited significantly” and the “effect” value is “reduced Kv4.3 inactivation time constant”. Also, in test [2], the “block of Kv4.3 peak amplitude” value was “inhibited significantly”.

As to `CCCCC/C=C/C/C=C/CCCCCCCC(=O)O` [linolelaidic acid], in test [1], the “block of Kv4.3 peak amplitude” value is “small, statistically significant block” and the “effect” value is recorded as “did not affect the Kv4.3 inactivation time constant”. The “block of Kv4.3 peak amplitude” value in test [2] is recorded as “All values except that of linolelaidic acid/Kv4.3 alone were statistically significant”.

For the compound `CCCCC/C=C\C/C=C\C/C=C\CCCCC(=O)O` [γ-linolenic acid], in test [1], the “block of Kv4.3 peak amplitude” value is recorded as “inhibited significantly” and the “effect” value was “reduced Kv4.3 inactivation time constant”. The “block of Kv4.3 peak amplitude” value in test [2] is recorded as “inhibited significantly”.
